In paper PMC6979384, “Characterization of the plant homeodomain (PHD) reader family for their histone tail interactions” (Epigenetics & Chromatin, 2020):

What was measured:
Assay in all cases: Histone peptide microarray
Format in all cases: binding, human
Settings in all cases: total n = 4
AIRE (PP) = test system: AIRE (PP)
Method in brief: (§1)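 A peptide microarray holding 293 synthetic histone peptides with individual or combinatorial modifications was probed with each GST-PHD protein at 0.5 μM. Values represent mean intensity (±SD) from four replicates.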

BAZ2B = test system: BAZ2B
Method in brief: as §1

BPTF (PB) = test system: BPTF (PB)
Method in brief: as §1

CHD4 (PPCC) = test system: CHD4 (PPCC)
Method in brief: as §1

CHD5 (PCC) = test system: CHD5 (PCC)
Method in brief: as §1

CHD5 (PPCC) = test system: CHD5 (PPCC)
Method in brief: as §1

DIDO1 = test system: DIDO1
Method in brief: as §1

DPF2 (PPC2W2) = test system: DPF2 (PPC2W2)
Method in brief: as §1

ING1 = test system: ING1
Method in brief: as §1

ING2 = test system: ING2
Method in brief: as §1

ING3 = test system: ING3
Method in brief: as §1

ING4 = test system: ING4
Method in brief: as §1

ING5 = test system: ING5
Method in brief: as §1

KDM4C (TTP) = test system: KDM4C (TTP)
Method in brief: as §1

KDM5A (1) = test system: KDM5A (1)
Method in brief: as §1

KDM5A (3) = test system: KDM5A (3)
Method in brief: as §1

KDM5B (1) = test system: KDM5B (1)
Method in brief: as §1

KDM5B (3) = test system: KDM5B (3)
Method in brief: as §1

KDM7A = test system: KDM7A
Method in brief: as §1

MLL5 = test system: MLL5
Method in brief: as §1

MORC3 (CW) = test system: MORC3 (CW)
Method in brief: as §1

PHF13 = test system: PHF13
Method in brief: as §1

PHF21A = test system: PHF21A
Method in brief: as §1

PHF23 = test system: PHF23
Method in brief: as §1

PHF2 = test system: PHF2
Method in brief: as §1

PHF8 = test system: PHF8
Method in brief: as §1

PHRF1 (RP) = test system: PHRF1 (RP)
Method in brief: as §1

RAG2 = test system: RAG2
Method in brief: as §1

SP140L = test system: SP140L
Method in brief: as §1

TAF3 = test system: TAF3
Method in brief: as §1

TRIM66 (PB) = test system: TRIM66 (PB)
Method in brief: as §1

[1] = sheet "Array Heatmap", GST-tagged reader, histone peptide array

Substance: H3R8me1 + K9me2: H3 1-20
- Array Heatmap signal, AIRE (PP) (AIRE (PP); [1]): 0.4949
- Array Heatmap signal, BAZ2B (BAZ2B; [1]): 0.525
- Array Heatmap signal, BPTF (PB) (BPTF (PB); [1]): 0.4109
- Array Heatmap signal, CHD4 (PPCC) (CHD4 (PPCC); [1]): 0.7009
- Array Heatmap signal, CHD5 (PCC) (CHD5 (PCC); [1]): 0.7992
- Array Heatmap signal, CHD5 (PPCC) (CHD5 (PPCC); [1]): 0.658
- Array Heatmap signal, DIDO1 (DIDO1; [1]): 0.8013
- Array Heatmap signal, DPF2 (PPC2W2) (DPF2 (PPC2W2); [1]): 0.8023
- Array Heatmap signal, ING1 (ING1; [1]): 0.6213
- Array Heatmap signal, ING2 (ING2; [1]): 0.6201
- Array Heatmap signal, ING3 (ING3; [1]): 0.5783
- Array Heatmap signal, ING4 (ING4; [1]): 0.5352
- Array Heatmap signal, ING5 (ING5; [1]): 0.4288
- Array Heatmap signal, KDM4C (TTP) (KDM4C (TTP); [1]): 0.5659
- Array Heatmap signal, KDM5A (1) (KDM5A (1); [1]): 0.5283
- Array Heatmap signal, KDM5A (3) (KDM5A (3); [1]): 0.6031
- Array Heatmap signal, KDM5B (1) (KDM5B (1); [1]): 0.696
- Array Heatmap signal, KDM5B (3) (KDM5B (3); [1]): 0.5247
- Array Heatmap signal, KDM7A (KDM7A; [1]): 0.3959
- Array Heatmap signal, MLL5 (MLL5; [1]): 0.5733
- Array Heatmap signal, MORC3 (CW) (MORC3 (CW); [1]): 0.4736
- Array Heatmap signal, PHF13 (PHF13; [1]): 0.7136
- Array Heatmap signal, PHF21A (PHF21A; [1]): 0.4957
- Array Heatmap signal, PHF23 (PHF23; [1]): 0.6046
- Array Heatmap signal, PHF2 (PHF2; [1]): 0.6657
- Array Heatmap signal, PHF8 (PHF8; [1]): 0.3836
- Array Heatmap signal, PHRF1 (RP) (PHRF1 (RP); [1]): 0.6787
- Array Heatmap signal, RAG2 (RAG2; [1]): 0.302
- Array Heatmap signal, SP140L (SP140L; [1]): 0.3989
- Array Heatmap signal, TAF3 (TAF3; [1]): 0.3249
- Array Heatmap signal, TRIM66 (PB) (TRIM66 (PB); [1]): 0.6813

Substance: H3K4me3 + K9ac + K14ac + K18ac: H3 1-20
- Array Heatmap signal (histone peptide microarray) (AIRE (PP); GST-tagged AIRE (PP), sheet Array Heatmap, each array performed twice): 0.4865
- Array Heatmap signal (histone peptide microarray) (BAZ2B; GST-tagged BAZ2B, sheet Array Heatmap, each array performed twice): 0.6196
- Array Heatmap signal (histone peptide microarray) (BPTF (PB); GST-tagged BPTF (PB = PHD + Bromodomain), sheet Array Heatmap, each array performed twice): 0.7619
- Array Heatmap signal (histone peptide microarray) (CHD4 (PPCC); GST-tagged CHD4 (PPCC = Dual PHD + Dual Chromodomain), sheet Array Heatmap, each array performed twice): 0.5745
- Array Heatmap signal (histone peptide microarray) (CHD5 (PCC); GST-tagged CHD5 (PCC = PHD + Dual Chromodomain), sheet Array Heatmap, each array performed twice): 0.8618
- Array Heatmap signal (histone peptide microarray) (CHD5 (PPCC); GST-tagged CHD5 (PPCC = Dual PHD + Dual Chromodomain), sheet Array Heatmap, each array performed twice): 0.5931
- Array Heatmap signal (histone peptide microarray) (DIDO1; GST-tagged DIDO1, sheet Array Heatmap, each array performed twice): 0.9126
- Array Heatmap signal (histone peptide microarray) (DPF2 (PPC2W2); GST-tagged DPF2 (PPC2W2 = Dual PHD + C2W2-type Zn-finger), sheet Array Heatmap, each array performed twice): 0.7652
- Array Heatmap signal (histone peptide microarray) (ING1; GST-tagged ING1, sheet Array Heatmap, each array performed twice): 0.7787
- Array Heatmap signal (histone peptide microarray) (ING2; GST-tagged ING2, sheet Array Heatmap, each array performed twice): 0.8772
- Array Heatmap signal (histone peptide microarray) (ING3; GST-tagged ING3, sheet Array Heatmap, each array performed twice): 0.8559
- Array Heatmap signal (histone peptide microarray) (ING4; GST-tagged ING4, sheet Array Heatmap, each array performed twice): 0.625
- Array Heatmap signal (histone peptide microarray) (ING5; GST-tagged ING5, sheet Array Heatmap, each array performed twice): 0.4716
- Array Heatmap signal (histone peptide microarray) (KDM4C (TTP); GST-tagged KDM4C (TTP = Tandem Tudor domain + PHD), sheet Array Heatmap, each array performed twice): 0.6463
- Array Heatmap signal (histone peptide microarray) (KDM5A (1); GST-tagged KDM5A (1), sheet Array Heatmap, each array performed twice): 0.4983
- Array Heatmap signal (histone peptide microarray) (KDM5A (3); GST-tagged KDM5A (3), sheet Array Heatmap, each array performed twice): 0.9909
- Array Heatmap signal (histone peptide microarray) (KDM5B (1); GST-tagged KDM5B (1), sheet Array Heatmap, each array performed twice): 0.7481
- Array Heatmap signal (histone peptide microarray) (KDM5B (3); GST-tagged KDM5B (3), sheet Array Heatmap, each array performed twice): 0.8339
- Array Heatmap signal (histone peptide microarray) (KDM7A; GST-tagged KDM7A, sheet Array Heatmap, each array performed twice): 0.5567
- Array Heatmap signal (histone peptide microarray) (MLL5; GST-tagged MLL5, sheet Array Heatmap, each array performed twice): 0.936
- Array Heatmap signal (histone peptide microarray) (MORC3 (CW); GST-tagged MORC3 (CW = CW-type Zn-finger), sheet Array Heatmap, each array performed twice): 1
- Array Heatmap signal (histone peptide microarray) (PHF13; GST-tagged PHF13, sheet Array Heatmap, each array performed twice): 0.7829
- Array Heatmap signal (histone peptide microarray) (PHF21A; GST-tagged PHF21A, sheet Array Heatmap, each array performed twice): 0.4925
- Array Heatmap signal (histone peptide microarray) (PHF23; GST-tagged PHF23, sheet Array Heatmap, each array performed twice): 0.8373
- Array Heatmap signal (histone peptide microarray) (PHF2; GST-tagged PHF2, sheet Array Heatmap, each array performed twice): 0.7873
- Array Heatmap signal (histone peptide microarray) (PHF8; GST-tagged PHF8, sheet Array Heatmap, each array performed twice): 0.7502
- Array Heatmap signal (histone peptide microarray) (PHRF1 (RP); GST-tagged PHRF1 (RP), sheet Array Heatmap, each array performed twice): 0.5895
- Array Heatmap signal (histone peptide microarray) (RAG2; GST-tagged RAG2, sheet Array Heatmap, each array performed twice): 0.8746
- Array Heatmap signal (histone peptide microarray) (SP140L; GST-tagged SP140L, sheet Array Heatmap, each array performed twice): 0.3627
- Array Heatmap signal (histone peptide microarray) (TAF3; GST-tagged TAF3, sheet Array Heatmap, each array performed twice): 0.6574
- Array Heatmap signal (histone peptide microarray) (TRIM66 (PB); GST-tagged TRIM66 (PB = PHD + Bromodomain), sheet Array Heatmap, each array performed twice): 0.6004
